The test system of assay [1] is isolated, ex vivo, hearts. As to the kind of experiment: Ischemia-reperfusion in isolated ex vivo retrograde-perfused (Langendorf) hearts. The settings on record: compared to untreated controls. The method, then:
The effect of meclizine in isolated, ex vivo, hearts was assessed using retrograde-perfused hearts and the Langendorf heart (Nadtochiy et al., Biochem. J., 395:611-618 (2006)). Hearts were then subjected to a period of ischemia followed by reperfusion.

The test system of another assay is MCH58 fibroblasts. The experiment in a line: Cellular oxygen consumption rate (OCR), extracellular acidification rate (ECAR) and lactic acid production. It is filed as cell-based, human. The method, then:
Cellular oxygen consumption and extracellular acidification assays were performed as follows. Briefly, MCH58 fibroblasts were seeded in XF24-well cell culture microplates (Seahorse Bioscience) at 30,000 cells/well in 10 mM glucose or 10 mM galactose media and incubated at 37° C./5% CO2 for ˜20 hours. Prior to the measurements, the growth medium was replaced with ˜925 μL of assay medium. The assay medium consisted of DMEM Base (Sigma Cat No D5030), 2 mM GlutaMax-1 (Gibco Cat No 350350-061), 1 mM Sodium Pyruvate (Sigma Cat No S8636), 10 mM Glucose (Sigma Cat No G8270) or Galactose (Sigma Cat No G5388), (1.85 g/L) Sodium Chloride and (15 mg/L) phenol red. The pH of the assay medium was adjusted to 7.4 with 1 N Sodium Hydroxide. The cells were incubated at 37° C. for 60 min in the assay medium prior to measurements.
The OCR and ECAR measurements on HeLa, 293, and STHdh^Q7/7 mouse striatal cells were carried out by growing them in XF24 plates at 40,000/well (HeLa) and STHdh^Q7/7 mouse striatal cells) and 60,000/well (293 cells) for ˜20 hours in their regular growth conditions. The assay medium was the same as above except that 25 mM glucose was used as the sugar source. The measurements were performed simultaneously every 7 minutes after a 2 minute mix and 2 minute wait period for MCH fibroblasts and every 6 minutes (with 2 minutes mix and 2 minute wait) for HeLa, 293, and STHdh^Q7/7 mouse striatal cells. Three baseline measurements were recorded prior to the addition of oligomycin (Biochemika 75352), Antimycin (Sigma A8674), roetnone (Sigma R8875), carbonyl cyanide 3-chlorophenylhydrazone (Sigma C2759) and meclizine hydrochloride (MSDiscovery 01500376). 50 mM stock solution of meclizine was made in DMSO, which was diluted to specified concentration in assay medium and its pH was adjusted to 7.4 by 1N Sodium hydroxide solution. The measurements were carried out at 33° C. for mouse striatal cells but for all other cell types measurement were done at 37° C.

Assay [2] concerns primary cardiomyocytes isolated from rat heart. The experiment in a line: Respiration in primary cardiomyocytes. It is filed as cell-based. The settings on record: 20 min exposure. The method, then: Cardiomyocytes were exposed to the indicated concentration of meclizine for 20 min followed by oxygen measurement in the respiration chamber. Typical respiration traces are shown.
Meclizine was confirmed to shift a cell's relative reliance on OXPHOS versus glycolysis by whole cell bioenergetic kinetic assays. […] This was true in primary cardiomyocytes isolated from rat heart (FIG. 3K) and primary cortical neurons isolated from mouse embryos (FIG. 3L). Cardiomyocytes were exposed to the indicated concentration of meclizine for 20 min followed by oxygen measurement in a respiration chamber. Oxygen consumption rate (OCR) measurements were made following meclizine (5 and 10 μM) or antimycin (1 μM) addition at time 0 (min) in mouse primary cortical neurons obtained from day E14-15 embryos.

Where a name gives a salt, the structure may show the parent alone.

As to `Cc1cccc(CN2CCN(C(c3ccccc3)c3ccc(Cl)cc3)CC2)c1` (racemic) [Meclizine, meclizine hydrochloride], in assay [1], the “infarct size (heart)” value is reported as “smaller infarct size” and the “rate pressure after I/R” value is “increase in rate pressure”. Also, the “Km for switching energy metabolism versus published Km for blocking H1 receptors” value in the assay on MCH58 fibroblasts is “about a hundred fold higher”. The lactic acid production result with MCH58 fibroblasts (requiring several hours to develop) is “increased lactic acid production in a dose-dependent manner”. The oxygen consumption rates entry with MCH58 fibroblasts (whole cell bioenergetic kinetic assays) is “reduced oxygen consumption rates”. Further, the “respiration in primary cardiomyocytes” value in assay [2] was “inhibits respiration”.

The values are drawn from patent US9399032B2, “Methods and compositions for treating degenerative and ischemic disorders” (The General Hospital Corporation, priority 2009, dated 2016).
